According to article PMC13347698 (Analytical Chemistry, 2026):

What was measured:
[1] = molecular target: dimeric C145A 3CL^pro single mutant (Severe acute respiratory syndrome coronavirus 2, UniProt P0DTD1, C3408A); assay type: binding, SARS-CoV-2
[2] = molecular target: monomeric E290A/R298A 3CL^pro double mutant (Severe acute respiratory syndrome coronavirus 2, UniProt P0DTD1, E3553A/R3561A); assay type: binding, SARS-CoV-2

SMILES: CC(C)(C)c1ccc(N(C(=O)c2c[nH]cn2)[C@@H](C(=O)NC2CCCCC2)c2cccnc2)cc1 [X77]
- binding heat detected [1]: No measurable heat was detected
- binding detectable [2]: not
